Test results reported in patent publication US8471005B2 (Cephalon, Inc., priority 2008, dated 2013).
Where two headings read alike, the source gives them in different places.

Experiments:
ALK = target: T1, ALK (Homo sapiens, UniProt Q9UM73); test: ALK Kinase Assay (ELISA/TRF, PLC-γ substrate); format: biochemical; conditions: read-out: ALK Potency
T1 construct: host or cells: baculovirus expression system
Procedure, shortened: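 Read-out is time-resolved fluorescence from a Eu-N1-labeled PT66 antibody that binds phosphorylated PLC-γ, the substrate coated at 10 μg/mL in TBS. ALK at 30 ng/ml starts the reaction, which runs 15 minutes at 37° C.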

JAK2 = target: T2, JAK2 (Homo sapiens, UniProt O60674); test: Recombinant Human JAK2 Kinase Assay (TRF); format: biochemical; conditions: read-out: JAK2 Potency
T2 construct: host or cells: baculovirus expression system
Procedure, shortened: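 Kinase activity of baculovirus-expressed JAK2 is followed on a surface-immobilised biotinylated peptide, with the reaction run for 20 min at room temperature in buffer containing 0.2 μM ATP and manganese. Phosphorylation is read with Eu-N1 PY100 antibody.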

[1] = ALK kinase inhibition, 1 μM ATP
[2] = JAK2 kinase inhibition, 0.2 μM ATP

T1 sequence (Q9UM73 19-1620): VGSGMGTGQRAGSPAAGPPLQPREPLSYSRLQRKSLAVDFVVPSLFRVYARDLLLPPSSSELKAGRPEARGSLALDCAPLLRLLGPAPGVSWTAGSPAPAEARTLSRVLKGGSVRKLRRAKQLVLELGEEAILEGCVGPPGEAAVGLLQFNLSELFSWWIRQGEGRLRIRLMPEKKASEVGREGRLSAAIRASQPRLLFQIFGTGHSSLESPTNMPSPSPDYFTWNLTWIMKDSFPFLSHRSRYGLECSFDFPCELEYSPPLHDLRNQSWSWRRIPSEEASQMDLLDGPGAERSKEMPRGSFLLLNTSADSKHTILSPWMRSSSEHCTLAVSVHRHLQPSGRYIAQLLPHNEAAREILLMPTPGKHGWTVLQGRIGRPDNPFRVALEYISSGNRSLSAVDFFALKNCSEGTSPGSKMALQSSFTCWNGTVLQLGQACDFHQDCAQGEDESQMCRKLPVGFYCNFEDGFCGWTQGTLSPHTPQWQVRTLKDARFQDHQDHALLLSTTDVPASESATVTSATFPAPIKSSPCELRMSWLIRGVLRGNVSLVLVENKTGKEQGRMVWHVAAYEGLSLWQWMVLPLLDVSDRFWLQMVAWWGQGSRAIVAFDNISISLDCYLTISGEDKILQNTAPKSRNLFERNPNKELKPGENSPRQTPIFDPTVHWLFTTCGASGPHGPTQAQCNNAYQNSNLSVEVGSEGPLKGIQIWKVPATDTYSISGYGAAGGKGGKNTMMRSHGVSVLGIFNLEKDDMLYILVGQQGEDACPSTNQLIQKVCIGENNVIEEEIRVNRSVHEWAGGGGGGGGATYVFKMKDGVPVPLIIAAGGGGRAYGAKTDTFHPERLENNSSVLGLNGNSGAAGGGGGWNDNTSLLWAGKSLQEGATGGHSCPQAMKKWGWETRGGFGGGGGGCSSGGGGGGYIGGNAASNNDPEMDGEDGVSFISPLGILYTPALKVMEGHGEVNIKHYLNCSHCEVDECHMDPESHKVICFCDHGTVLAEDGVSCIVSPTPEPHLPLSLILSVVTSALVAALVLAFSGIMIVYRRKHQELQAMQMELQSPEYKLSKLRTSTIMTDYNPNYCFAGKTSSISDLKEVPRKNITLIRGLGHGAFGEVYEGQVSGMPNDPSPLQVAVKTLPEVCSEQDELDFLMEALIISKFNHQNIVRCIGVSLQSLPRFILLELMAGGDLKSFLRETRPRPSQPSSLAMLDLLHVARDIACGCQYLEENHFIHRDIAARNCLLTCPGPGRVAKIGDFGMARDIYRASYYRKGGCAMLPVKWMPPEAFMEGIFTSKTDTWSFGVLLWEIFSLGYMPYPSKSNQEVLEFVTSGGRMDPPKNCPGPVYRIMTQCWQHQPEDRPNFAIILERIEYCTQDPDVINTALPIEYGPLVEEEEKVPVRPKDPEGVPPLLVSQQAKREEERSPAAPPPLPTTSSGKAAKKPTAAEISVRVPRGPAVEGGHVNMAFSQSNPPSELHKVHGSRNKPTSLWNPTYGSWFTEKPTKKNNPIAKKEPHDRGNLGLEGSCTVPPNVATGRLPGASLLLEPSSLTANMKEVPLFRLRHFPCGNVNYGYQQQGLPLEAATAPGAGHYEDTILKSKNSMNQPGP
T2 sequence (O60674 whole entry): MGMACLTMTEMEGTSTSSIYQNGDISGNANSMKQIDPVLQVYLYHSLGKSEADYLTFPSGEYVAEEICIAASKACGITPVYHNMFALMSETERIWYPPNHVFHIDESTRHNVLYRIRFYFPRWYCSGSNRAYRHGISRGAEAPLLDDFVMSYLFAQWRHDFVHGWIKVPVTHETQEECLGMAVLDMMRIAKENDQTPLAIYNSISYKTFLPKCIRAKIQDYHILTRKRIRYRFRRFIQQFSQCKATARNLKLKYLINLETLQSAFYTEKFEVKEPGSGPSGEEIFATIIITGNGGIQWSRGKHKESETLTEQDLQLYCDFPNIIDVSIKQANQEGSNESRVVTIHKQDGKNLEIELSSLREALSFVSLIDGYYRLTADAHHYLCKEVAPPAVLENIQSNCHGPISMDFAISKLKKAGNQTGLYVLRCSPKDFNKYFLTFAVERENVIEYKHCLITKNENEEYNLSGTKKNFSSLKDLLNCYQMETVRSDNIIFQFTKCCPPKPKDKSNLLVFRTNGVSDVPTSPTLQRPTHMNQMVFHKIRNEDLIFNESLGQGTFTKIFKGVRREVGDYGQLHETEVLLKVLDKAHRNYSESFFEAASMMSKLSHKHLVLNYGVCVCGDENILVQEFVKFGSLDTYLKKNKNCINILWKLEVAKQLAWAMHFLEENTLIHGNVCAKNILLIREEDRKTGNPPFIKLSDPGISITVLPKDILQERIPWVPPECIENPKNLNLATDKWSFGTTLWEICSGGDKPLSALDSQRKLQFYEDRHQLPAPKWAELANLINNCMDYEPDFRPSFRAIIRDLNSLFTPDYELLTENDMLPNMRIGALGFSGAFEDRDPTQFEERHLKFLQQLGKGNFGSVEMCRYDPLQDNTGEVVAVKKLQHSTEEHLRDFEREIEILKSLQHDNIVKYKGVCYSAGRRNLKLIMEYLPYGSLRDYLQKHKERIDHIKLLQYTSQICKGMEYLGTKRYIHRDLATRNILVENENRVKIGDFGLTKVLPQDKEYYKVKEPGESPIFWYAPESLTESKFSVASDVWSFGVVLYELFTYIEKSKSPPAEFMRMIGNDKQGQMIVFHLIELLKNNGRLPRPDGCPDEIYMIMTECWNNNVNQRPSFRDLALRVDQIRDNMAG

IC50 (ALK; [1]) | IC50 (JAK2; [2]) | IC50 (ALK; ALK Kinase Inhibition) | IC50 (JAK2; JAK2 Kinase Inhibition) | Structure (SMILES)
< 0.1 µM | < 0.1 µM |  |  | COCCN1CCc2ccc(Nc3ncc4ccc(-c5cccc(CCC#N)c5)n4n3)cc2CC1 [Example 1152, 3-(3-{2-[3-(2-Methoxy-ethyl)-2,3,4,5-tetrahydro-1H-benzo[d]azepin-7-ylamino]-pyrrolo[2,1-f][1,2,4]triazin-7-yl}-phenyl)-propionitrile]
 |  | < 0.1 µM | < 0.1 µM | C[C@H](O)CN1CCN(c2ccc(Nc3ncc4ccc(-c5cccc(S(=O)(=O)NC(C)(C)C)c5)n4n3)cc2)CC1 [Example 427, N-tert-Butyl-3-(2-{4-[4-((S)-2-hydroxy-propyl)-piperazin-1-yl]-phenylamino}-pyrrolo[2,1-f][1,2,4]triazin-7-yl)-benzenesulfonamide]
0.1 to 1 µM | < 0.1 µM |  |  | Cn1ncc2cc(Nc3ncc4ccc(-c5cccc(S(=O)(=O)NC(C)(C)C)c5)n4n3)ccc21 [Example 1316, N-tert-Butyl-3-[2-(1-methyl-1H-indazol-5-ylamino)-pyrrolo[2,1-f][1,2,4]triazin-7-yl]-benzenesulfonamide]
< 0.1 µM | 0.1 to 1 µM |  |  | COc1cc(N2CCC(N3CCCOCC3)CC2)ccc1Nc1ncc2ccc(-c3ccccc3N(C)S(C)(=O)=O)n2n1 [Example 783, N-(2-{2-[2-Methoxy-4-(4-[1,4]oxazepan-4-yl-piperidin-1-yl)-henylamino]-pyrrolo[2,1-f][1,2,4]triazin-7-yl}-phenyl)-N-methyl-methanesulfonamide]
 |  | 0.1 to 1 µM | 1 to 10 µM | COc1cc(N2CCCC(N3CCN(C(=O)OCc4ccccc4)CC3)C2)ccc1Nc1ncc2ccc(-c3ccccc3OC)n2n1 (centres unmarked) [Example 234, 4-(1-{3-Methoxy-4-[7-(2-methoxy-phenyl)-pyrrolo[2,1-f][1,2,4]triazin-2-ylamino]-phenyl}-piperidin-3-yl)-piperazine-1-carboxylic acid benzyl ester]
 |  | 0.1 to 1 µM | < 0.1 µM | CN1CCN(c2ccc(Nc3ncc4ccc(-c5ccccc5OCC(=O)O)n4n3)cc2F)CC1 [Example 1401, (2-{2-[3-Fluoro-4-(4-methyl-piperazin-1-yl)-phenylamino]-pyrrolo[2,1-f][1,2,4]triazin-7-yl}-phenoxy)-acetic acid]
 |  | 1 to 10 µM | < 0.1 µM | CC(C)S(=O)(=O)c1ccc(-c2ccc3cnc(Nc4ccc(N5CCOCC5)cc4)nn23)cc1 [Example 199, (4-Morpholin-4-yl-phenyl)-{7-[4-(propane-2-sulfonyl)-phenyl]-pyrrolo[2,1-f][1,2,4]triazin-2-yl}-amine]
0.1 to 1 µM | < 0.1 µM |  |  | COc1ccc(-c2ccc3cnc(Nc4ccc(N5CCC(CO)CC5)cc4)nn23)cn1 [Example 1102, (1-{4-[7-(6-Methoxy-pyridin-3-yl)-pyrrolo[2,1-f][1,2,4]triazin-2-ylamino]-phenyl}-piperidin-4-yl)-methanol]
0.1 to 1 µM | < 0.1 µM |  |  | CN1CCN(c2ccc(Nc3ncc4ccc(-c5cccc(NS(C)(=O)=O)c5)n4n3)nc2)CC1 [Example 1194, N-(3-{2-[5-(4-Methyl-piperazin-1-yl)-pyridin-2-ylamino]-pyrrolo[2,1-f][1,2,4]triazin-7-yl}-phenyl)-methanesulfonamide]
< 0.1 µM | < 0.1 µM |  |  | CN1CCCC1COc1cccc(Nc2ncc3ccc(-c4cccc(S(=O)(=O)NC(C)(C)C)c4)n3n2)c1 (centres unmarked) [Example 1005, N-tert-Butyl-3-{2-[3-(1-methyl-pyrrolidin-2-ylmethoxy)-phenylamino]-pyrrolo[2,1-f][1,2,4]triazin-7-yl}-benzenesulfonamide]
 |  | 0.1 to 1 µM | < 0.1 µM | CN(c1ccccc1-c1ccc2cnc(Nc3ccc(CN4CCCC4)cc3)nn12)S(C)(=O)=O [Example 1428, N-Methyl-N-{2-[2-(4-pyrrolidin-1-ylmethyl-phenylamino)-pyrrolo[2,1-f][1,2,4]triazin-7-yl]-phenyl}-methane sulfonamide]
 |  | > 10 µM | < 0.1 µM | CC(=O)Nc1cc(Nc2ncc3ccc(-c4ccc(S(C)(=O)=O)cc4)n3n2)ccc1C(C)(C)C [Example 326, N-{2-tert-Butyl-5-[7-(4-methanesulfonyl-phenyl)-pyrrolo[2,1-f][1,2,4]triazin-2-ylamino]-phenyl}-acetamide]
 |  | 0.1 to 1 µM | < 0.1 µM | CS(=O)(=O)c1cccc(-c2ccc3cnc(Nc4ccc(N5CCN(CCO)CC5)cc4)nn23)c1 [Example 95, 2-(4-{4-[7-(3-Methanesulfonyl-phenyl)-pyrrolo[2,1-f][1,2,4]triazin-2-ylamino]-phenyl}-piperazin-1-yl)-ethanol]
1 to 10 µM | < 0.1 µM |  |  | CC(C)(C)NS(=O)(=O)c1cccc(-c2ccc3cnc(Nc4ccc5nc(C(C)(C)C)[nH]c5c4)nn23)c1 [Example 1330, N-tert-Butyl-3-[2-(2-tert-butyl-3H-benzimidazol-5-ylamino)-pyrrolo[2,1-f][1,2,4]triazin-7-yl]-benzenesulfonamide]
< 0.1 µM | 1 to 10 µM |  |  | COC[C@H](O)CN1CCN(Cc2ccc(Nc3ncc4ccc(-c5ccccc5N(C)S(C)(=O)=O)n4n3)c(OC)c2)CC1 [Example 1225, N-[2-(2-{4-[4-((R)-2-Hydroxy-3-methoxy-propyl)-piperazin-1-ylmethyl]-2-methoxy-phenylamino}-pyrrolo[2,1-f][1,2,4]triazin-7-yl)-phenyl]-N-methyl-methanesulfonamide]
0.1 to 1 µM | 0.1 to 1 µM |  |  | COc1cc(N2CCC3(CC2)OCCO3)ccc1Nc1ncc2ccc(-c3ccccc3OC)n2n1 [Example 482, [4-(1,4-Dioxa-8-aza-spiro[4.5]dec-8-yl)-2-methoxy-phenyl]-[7-(2-methoxy-phenyl)-pyrrolo[2,1-f][1,2,4]triazin-2-yl]-amine]
0.1 to 1 µM | < 0.1 µM |  |  | CN1CCC(c2ccc(Nc3ncc4ccc(-c5cccc(S(C)(=O)=O)c5)n4n3)cc2)CC1 [Example 1120, [7-(3-Methanesulfonyl-phenyl)-pyrrolo[2,1-f][1,2,4]triazin-2-yl]-[4-(1-methyl-piperidin-4-yl)-phenyl]-amine]
 |  | 0.1 to 1 µM | 0.1 to 1 µM | COc1cc(N2CCN(C)CC2)ccc1Nc1ncc2ccc(-c3cc(S(=O)(=O)N(C)C)ccc3C)n2n1 [Example 75, 3-{2-[2-Methoxy-4-(4-methyl-piperazin-1-yl)-phenylamino]-pyrrolo[2,1-f][1,2,4]triazin-7-yl}-4,N,N-trimethyl-benzenesulfonamide]
 |  | 0.1 to 1 µM | < 0.1 µM | CC(C)(C)NS(=O)(=O)c1cccc(-c2ccc3cnc(Nc4ccc(C5CNCCN5)cc4)nn23)c1 (centres unmarked) [Example 1528, N-tert-Butyl-3-[2-(4-piperazin-2-yl-phenylamino)-pyrrolo[2,1-f][1,2,4]triazin-7-yl]-benzenesulfonamide]
< 0.1 µM | 0.1 to 1 µM |  |  | COc1cc(CN2CCN(CC(O)CF)CC2)ccc1Nc1ncc2ccc(-c3ccccc3OC)n2n1 (centres unmarked) [Example 1243, 1-Fluoro-3-(4-{3-methoxy-4-[7-(2-methoxy-phenyl)-pyrrolo[2,1-f][1,2,4]triazin-2-ylamino]-benzyl}-piperazin-1-yl)-propan-2-ol]
 |  | 0.1 to 1 µM | < 0.1 µM | COc1ccccc1-c1ccc2cnc(Nc3ccc4nc(CN5CCN(CCO)CC5)[nH]c4c3)nn12 [Example 1522, 2-(4-{6-[7-(2-Methoxy-phenyl)-pyrrolo[2,1-f][1,2,4]triazin-2-ylamino]-1H-benzimidazol-2-ylmethyl}-piperazin-1-yl)-ethanol]
0.1 to 1 µM | 0.1 to 1 µM |  |  | COc1cc(N2CCN(C[C@H](C)O)CC2)ccc1Nc1ncc2ccc(-c3ccccc3[S+](C)[O-])n2n1 (stereo partly drawn) [Example 545, (S)-1-(4-{4-[7-(2-Methanesulfinyl-phenyl)-pyrrolo[2,1-f][1,2,4]triazin-2-ylamino]-3-methoxy-phenyl}-piperazin-1-yl)-propan-2-ol]
 |  | 1 to 10 µM | < 0.1 µM | COc1cccnc1-c1ccc2cnc(Nc3ccc(C4CCN(CC(N)=O)CC4)cc3)nn12 [Example 1531, 2-(4-{4-[7-(3-Methoxy-pyridin-2-yl)-pyrrolo[2,1-f][1,2,4]triazin-2-ylamino]-phenyl}-piperidin-1-yl)-acetamide]
0.1 to 1 µM | < 0.1 µM |  |  | CN(c1ccccc1-c1ccc2cnc(Nc3ccc(N4CCC(O)CC4)cc3)nn12)S(C)(=O)=O [Example 635, N-(2-{2-[4-(4-Hydroxy-piperidin-1-yl)-phenylamino]pyrrolo[2,1-f][1,2,4]triazin-7-yl}phenyl)-N-methylmethanesulfonamide]
 |  | 0.1 to 1 µM | < 0.1 µM | COc1ccccc1-c1ccc2cnc(Nc3ccc4c(c3)CC(=O)N4)nn12 [Example 432, 5-[7-(2-Methoxy-phenyl)-pyrrolo[2,1-f][1,2,4]triazin-2-ylamino]-1,3-dihydro-indol-2-one]
> 10 µM | < 0.1 µM |  |  | CC(C)(C)NS(=O)(=O)c1cccc(-c2ccc3cnc(Nc4ccc5ncsc5c4)nn23)c1 [Example 573, 3-[2-(Benzothiazol-6-ylamino)-pyrrolo[2,1-f][1,2,4]triazin-7-yl]-N-tert-butyl-benzenesulfonamide]
 |  | 0.1 to 1 µM | < 0.1 µM | CN1CCN(c2ccc(Nc3ncc4ccc(-c5ccccc5OCC(=O)N(C)C)n4n3)cc2F)CC1 [Example 1404, 2-(2-{2-[3-Fluoro-4-(4-methyl-piperazin-1-yl)-phenylamino]-pyrrolo[2,1-f][1,2,4]triazin-7-yl}-phenoxy)-N,N-dimethyl-acetamide]

Structure (SMILES) | IC50 (ALK; [1]) | IC50 (JAK2; [2]) | IC50 (ALK; ALK Kinase Inhibition) | IC50 (JAK2; JAK2 Kinase Inhibition)
CN1CCN(c2cccc(Nc3ncc4ccc(-c5cccc(COC(C)(C)C)c5)n4n3)c2)CC1 [Example 1558, [7-(3-tert-Butoxymethyl-phenyl)-pyrrolo[2,1-f][1,2,4]triazin-2-yl]-[3-(4-methyl-piperazin-1-yl)-phenyl]-amine] |  |  | 0.1 to 1 µM | < 0.1 µM
